Consider 24 compounds from ChEMBL document CHEMBL1155336, “Design and discovery of 1,3-benzodiazepines as novel dopamine antagonists” (Bioorg Med Chem Lett, 2009).

Tested on in the first data set: not listed separately
The data set can be described thus: Ionization constant for the compound (pKa). It counts as physicochemical.
By pKa is commonly meant the negative logarithm of the acid dissociation constant. Low readings indicate a group that gives up its proton readily, high ones a group that holds its proton tightly. `CCCC/N=C/N(C)c1ccccc1` came in with a pKa of 8.9.

Take `N=C(N)Nc1ccccc1` [PHENYLGUANIDINE]: the pKa was 10.8.

The species entered for the next data set is Homo sapiens. The data set can be described thus: Selectivity ratio, the ratio of ki for human D2 receptor to Ki for human D1 receptor.
As for `Oc1cc2c(cc1Cl)CCN=C(C1CCCCC1)N2`, the Ratio worked out at 7.

As to `CC(C)CC1=NCCc2cc(Cl)c(O)cc2N1`, the Ratio amounted to 17.

Turning to `CNC1=NCCc2cc(Cl)c(O)cc2N1`, the Ratio amounted to 13.

As to `Oc1cc2c(cc1Cl)CCN=C(c1ccccc1)N2`, the Ratio worked out at 42.

On to `COc1ccc(/C=C/C2=NCCc3cc(Cl)c(O)cc3N2)cc1`, for which the Ratio was 3.

In the case of `CC1=NCCc2cc(Cl)c(O)cc2N1c1ccccc1C`, the Ratio is 31.

On to `Oc1cc2c(cc1Cl)CCN=C(NC1CC1)N2`, for which the Ratio came to 6.

In the case of `Oc1cc2c(cc1Cl)CCN=C(SCc1ccccc1)N2`, the Ratio came to 2.

With `CSC1=NCCc2cc(Cl)c(O)cc2N1`, the Ratio was determined as 5.

With `NC1=NCCc2cc(Cl)c(O)cc2N1`, the Ratio amounted to 1.

In the case of `CC1=NCCc2cc(Cl)c(O)cc2N1c1ccsc1`, the Ratio was determined as 32.

`CN(C)c1ccc(/C=C/C2=NCCc3cc(Cl)c(O)cc3N2C2CCCCC2)cc1`: the Ratio came to 8.

For the compound `CC1=NCCc2cc(Cl)c(O)cc2N1c1ccc(C)cc1`, the Ratio is 55.

Take `Oc1cc2c(cc1Cl)CCN=C(NCCc1ccccc1)N2`: the Ratio worked out at 1.

For the compound `Oc1cc2c(cc1Cl)CCN=C(NC1CCCCC1)N2`, the Ratio is 12.

Regarding `Oc1cc2c(cc1Cl)CCN=C(C1CC1)N2`, the Ratio is 1.

As for `Oc1cc2c(cc1Cl)CCN=C(NC1CCCC1)N2`, the Ratio stood at 12.

With `CN(C)c1ccc(/C=C/C2=NCCc3cc(Cl)c(O)cc3N2c2ccccc2)cc1`, the Ratio was 23.

As for `COc1ccc(C2CC2C2=NCCc3cc(Cl)c(O)cc3N2)cc1` (centres undefined), the Ratio was 3.

`CC1=NCCc2cc(Cl)c(O)cc2N1Cc1ccccc1`: the Ratio was 3.

Take `COc1ccc2cc(C3=NCCc4cc(Cl)c(O)cc4N3)ccc2c1`: the Ratio worked out at 4.

As for `CC1=NCCc2cc(Cl)c(O)cc2N1c1ccccc1`, the Ratio came to 36.
